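Growth conditions: 96-well plates. Treatment: test compound, 48 hours, 5 concentrations. Analysis: linear interpolation between bracketing concentrations; unreached endpoints set to highest concentration. Abbreviation: GI50, concentration required for 50% inhibition of growth.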 The source made the active and inactive calls. No stated cut-off is given here; in the data, active = GI50 up to about 1.1 µM and inactive = higher.
Assays:
Assay in all cases: NCI-60 cell line screen, 48 h
[1] = test system: 786-0
[2] = test system: A549
[3] = test system: ACHN
[4] = test system: CAKI-1
[5] = test system: CCRF-CEM
[6] = test system: COLO 205
[7] = test system: HOP-92
[8] = test system: M14
[9] = test system: MOLT-4
[10] = test system: NCI-H226
[11] = test system: OVCAR-3
[12] = test system: OVCAR-5
[13] = test system: SK-MEL-28
[14] = test system: SNB-19
[15] = test system: SW-620
[16] = test system: T47D
[17] = test system: TK-10
[18] = test system: KM12
[19] = test system: OVCAR-4

Measured: GI50

O=C(c1ccccc1)C1C(C(=O)c2ccccc2)C(c2ccccc2)N(c2ccccc2)C1c1ccccc1 (configuration not stated)
inactive: [1] > 100 µM | [2] > 100 µM | [3] > 100 µM | [4] > 100 µM | [5] > 100 µM | [6] > 100 µM | [7] > 100 µM | [8] > 100 µM | [9] > 100 µM | [10] > 100 µM | [11] > 100 µM | [12] > 100 µM | [13] > 100 µM | [14] > 100 µM | [15] > 100 µM | [16] > 100 µM | [17] > 100 µM

CNC1C(O)C(OC2C(N)CC(N)C(OC3OC(CN)=CCC3N)C2O)OCC1(C)O (configuration not stated)
inactive: [1] > 100 µM | [2] > 100 µM | [3] > 100 µM | [4] > 100 µM | [5] > 100 µM | [6] > 100 µM | [7] > 100 µM | [18] > 100 µM | [8] > 100 µM | [9] > 100 µM | [10] > 100 µM | [11] > 100 µM | [12] > 100 µM | [13] > 100 µM | [14] > 100 µM | [15] > 100 µM | [16] > 100 µM

CC1(C)S[C@@H]2[C@H](NC(=O)[C@H](N)c3ccccc3)C(=O)N2[C@H]1C(=O)O [AMPICILLIN]
inactive: [1] > 100 µM | [2] > 100 µM | [3] > 100 µM | [4] > 100 µM | [5] > 100 µM | [6] > 100 µM | [7] > 100 µM | [18] > 100 µM | [8] > 100 µM | [9] > 100 µM | [11] > 100 µM | [12] > 100 µM | [13] > 100 µM | [14] > 100 µM | [15] > 100 µM | [16] > 100 µM | [17] > 100 µM

CN(C(=O)Cc1ccccc1)n1cnn(CC(=O)OC(C)(C)C)c1=S
inactive: [1] > 10 µM | [2] > 10 µM | [3] > 10 µM | [4] > 10 µM | [5] > 10 µM | [6] > 10 µM | [7] > 10 µM | [18] > 10 µM | [8] > 10 µM | [9] > 10 µM | [11] > 10 µM | [19] > 10 µM | [12] > 10 µM | [13] > 10 µM | [14] > 10 µM | [15] > 10 µM | [16] > 10 µM | [17] > 10 µM

COC1=CC(=O)c2c(O)c3c(c(O)c2C1=O)OC1(Oc2c(cc4cc(C)oc(=O)c4c2O)CC1O)C3O (configuration not stated)
inactive: [1] 40 µM | [2] 45.2 µM | [3] 41.3 µM | [4] 21.7 µM | [5] 30.1 µM | [6] 32.8 µM | [7] > 100 µM | [18] 29.9 µM | [8] 42.5 µM | [9] 23.3 µM | [11] 67.1 µM | [19] 27.8 µM | [12] 32.7 µM | [13] 46.5 µM | [14] 20.9 µM | [15] 53.7 µM | [16] 38.1 µM | [17] 50.9 µM

c1ccc2c(Cc3nnc4sc(SSc5nn6c(Cc7c[nH]c8ccccc78)nnc6s5)nn34)c[nH]c2c1
inactive: [1] 20.8 µM | [2] 28.8 µM | [3] 26.4 µM | [4] 18.7 µM | [5] 32.6 µM | [6] 21.1 µM | [7] 31 µM | [18] 22.9 µM | [8] 18.5 µM | [9] 8.93 µM | [11] 11.8 µM | [19] 58.1 µM | [12] 26.2 µM | [13] 33.5 µM | [14] 31 µM | [15] 16.7 µM | [16] 23.2 µM | [17] 38.7 µM

C[C@H](C/C=C/C(C)(C)O)[C@H]1CC[C@@]2(C)[C@@H]3CC[C@H]4C(C)(C)[C@@H](O)CC[C@@]45C[C@@]35CC[C@]12C
inactive: [1] 20.9 µM | [2] 14.7 µM | [3] 6.35 µM | [7] 11.3 µM | [18] 24.7 µM | [8] 17.8 µM | [9] 9.91 µM | [10] 17.1 µM | [11] 50.5 µM | [19] 16.9 µM | [12] 14.4 µM | [13] 18.8 µM | [14] 25.5 µM | [15] 18.4 µM | [16] 27 µM | [17] 13 µM

COc1ccc2c(c1)OCC1Cc3ccccc3OC21 (configuration not stated)
inactive: [1] > 100 µM | [2] > 100 µM | [3] > 100 µM | [4] > 100 µM | [5] > 100 µM | [6] > 100 µM | [7] > 100 µM | [18] 74 µM | [8] 69.5 µM | [9] 54.1 µM | [10] > 100 µM | [11] > 100 µM | [12] > 100 µM | [15] > 100 µM | [16] > 100 µM | [17] > 100 µM
